Reference: patent US11247981B2, “Metalloenzyme inhibitor compounds” (Mycovia Pharmaceuticals, Inc., priority 2012, dated 2022)
Values after ≈ are worked out from the molar mass of the structure shown.

Tested on: C. albicans
Assay: Minimum Inhibitory Concentration (MIC), CLSI M27-A2
Assay type: cell-based
Conditions: rating scale in μg/mL
Procedure: A. Minimum Inhibitory Concentration (MIC) Compounds were assessed for their ability to inhibit the growth of common strains of fungus, C. albicans using a standardized procedure (CLSI M27-A2). Stock solutions of the test compounds and standards were prepared in DMSO at 1,600 μg/mL (C. albicans). Eleven, serial, one-half dilutions of compounds were prepared in 96-well plates in RPMI+MOPS. The assay concentration ranges were 8-0.001 μg/mL (C. albicans). Cell suspensions of C. albicans were prepared and added to each well at concentrations of approximately 3.7×10^3 colony-forming-units per milliliter (cfu/mL). All testing was in duplicate. The inoculated plates were incubated for approximately 48 h at 35±1° C. At the completion of incubation the wells of each plate were evaluated visually for the presence of fungal growth. […] For QC purposes C. krusei isolate ATCC 6258 (4.0×10^3 cfu/mL) was included in the VOR assay.

Row | SMILES | Candida MIC Rating | MIC (Candida albicans)
1 | OC(Cn1cnnn1)(c1ccc(F)cc1F)C(F)(F)c1ccc(-c2ccc(OCC(F)(F)F)cc2)cn1 (centres unmarked) [Example 39, 2-(2,4-Difluorophenyl)-1,1-difluoro-3-(1H-tetrazol-1-yl)-1-(5-(4-(2,2,2-trifluoroethoxy)phenyl)pyridin-2-yl)propan-2-ol] | C (>1.5 − 4) | –
2 | OC(Cn1cnnn1)(c1ccc(F)cc1F)C(F)(F)c1ccc(-c2ccc(OCC(F)(F)F)cc2)cn1 (centres unmarked) [Example 11, 2-(2,4-Difluorophenyl)-1,1-difluoro-3-(1H-tetrazol-1-yl)-1-(5-(4-(2,2,2-trifluoroethoxy)phenyl)pyridin-2-yl)propan-2-ol] | A (≤0.5) | –
3 | CC(F)(c1ccc(-c2ccc(F)cc2)cn1)C(O)(Cn1cnnn1)c1ccc(F)cc1F (centres unmarked) [Example 50, 2-(2,4-Difluorophenyl)-3-fluoro-3-(5-(4-fluorophenyl)pyridin-2-yl)-1-(1H-tetrazol-1-yl)butan-2-ol] | – | 1.5 to 4 µg/mL (≈ 3.38 to 9.02 µM)
4 | CC(F)(c1ccc(-c2ccc(Cl)cc2)cn1)C(O)(Cn1cnnn1)c1ccc(F)cc1F (centres unmarked) [Example 55, 3-(5-(4-Chlorophenyl)pyridin-2-yl)-2-(2,4-difluorophenyl)-3-fluoro-1-(1H-tetrazol-1-yl)butan-2-ol] | A (≤0.5) | –
5 | CC(F)(c1ccc(-c2ccc(Cl)cc2)cn1)C(O)(Cn1cnnn1)c1ccc(F)cc1F (centres unmarked) [Example 54, 3-(5-(4-Chlorophenyl)pyridin-2-yl)-2-(2,4-difluorophenyl)-3-fluoro-1-(1H-tetrazol-1-yl)butan-2-ol] | C (>1.5 − 4) | –

More lines, now with the values ahead:

Row | Candida MIC Rating | MIC (Candida albicans) | SMILES
6 | C (>1.5 − 4) | – | CC(F)(c1ccc(-c2ccc(OCC(F)(F)F)cc2)cn1)C(O)(Cn1cnnn1)c1ccc(F)cc1F (centres unmarked) [Example 56, 2-(2,4-Difluorophenyl)-3-fluoro-1-(1H-tetrazol-1-yl)-3-(5-(4-(2,2,2-trifluoroethoxy)phenyl)pyridin-2-yl)butan-2-ol]
7 | C (>1.5 − 4) | – | CC(F)(c1ccc(-c2ccc(C(F)(F)F)cc2)cn1)C(O)(Cn1cnnn1)c1ccc(F)cc1F (centres unmarked) [Example 52]
8 | A (≤0.5) | – | CC(F)(c1ccc(-c2ccc(OC(F)(F)F)cc2)cn1)C(O)(Cn1cnnn1)c1ccc(F)cc1F (centres unmarked) [Example 47, 2-(2,4-Difluorophenyl)-3-fluoro-1-(1H-tetrazol-1-yl)-3-(5-(4-(trifluoromethoxy)phenyl)-pyridin-2-yl)butan-2-ol]
9 | A (≤0.5) | – | CC(F)(c1ccc(-c2ccc(OCC(F)(F)F)cc2)cn1)C(O)(Cn1cnnn1)c1ccc(F)cc1F (centres unmarked) [Example 57, 2-(2,4-Difluorophenyl)-3-fluoro-1-(1H-tetrazol-1-yl)-3-(5-(4-(2,2,2-trifluoroethoxy)phenyl)pyridin-2-yl)butan-2-ol]
10 | B (>0.5 − 1.5) | – | CC(F)(c1ccc(-c2ccc(C(F)(F)F)cc2)cn1)C(O)(Cn1cnnn1)c1ccc(F)cc1F (centres unmarked) [Example 53]
11 | A (≤0.5) | – | CC(F)(c1ccc(-c2ccc(F)cc2)cn1)C(O)(Cn1cnnn1)c1ccc(F)cc1F (centres unmarked) [Example 51, 2-(2,4-Difluorophenyl)-3-fluoro-3-(5-(4-fluorophenyl)pyridin-2-yl)-1-(1H-tetrazol-1-yl)butan-2-ol]
